Test results: ChEMBL document CHEMBL1795337, “Sulfonamides incorporating boroxazolidone moieties are potent inhibitors of the transmembrane, tumor-associated carbonic anhydrase isoforms IX and XII” (Bioorg Med Chem Lett, 2011)

Each molecule was assayed against Carbonic anhydrase 9 (Homo sapiens, UniProt Q16790).
Description: Inhibition of human recombinant catalytic domain of carbonic anhydrase 9 preincubated for 15 mins by stopped-flow CO2 hydration assay
With `CCB(CC)OC(=O)[C@@H](N)CCCCNC(=S)Nc1ccc(S(N)(=O)=O)cc1` the Ki was 9.3 nM. `CCB(CC)OC(=O)[C@@H](N)CCCCNC(=S)Nc1cccc(S(N)(=O)=O)c1` showed a Ki of 9.5 nM. In the case of `CCB(CC)OC(=O)[C@@H](N)CCCCNC(=S)NCc1ccc(S(N)(=O)=O)cc1`, the Ki is reported as 9.5 nM. `CCB(CC)OC(=O)[C@@H](N)CCCCNC(=S)NCCc1ccc(S(N)(=O)=O)cc1` gave a Ki of 9.6 nM. For `CCB(CC)OC(=O)[C@@H](N)CCCCNC(=S)Nc1ccc(S(N)(=O)=O)cc1Cl`, the Ki was 91 nM. `CCB(CC)OC(=O)[C@@H](N)CCCCNC(=S)Nc1ccc(S(N)(=O)=O)cc1F` gave a Ki of 89 nM. `CCB(CC)OC(=O)[C@@H](N)CCCCNC(=S)Nc1ccc(S(N)(=O)=O)cc1Br` gave a Ki of 92 nM. Molecule `CCB(CC)OC(=O)[C@@H](N)CCCCNC(=S)Nc1ccc(S(=O)(=O)NCc2ccc(S(N)(=O)=O)cc2)cc1` has a Ki of 7.7 nM. For `CCB(CC)OC(=O)[C@@H](N)CCCCNC(=S)Nc1ccc(S(=O)(=O)NCCc2ccc(S(N)(=O)=O)cc2)cc1`, the Ki was 9 nM. `CCB(CC)OC(=O)[C@@H](N)CCCCNC(=S)Nc1ccc(S(=O)(=O)Nc2nnc(S(N)(=O)=O)s2)cc1` showed a Ki of 8.6 nM.
